Values of other authors in patent US20100197018A1, “USE OF SUBSTRATES AS PHARMACOLOGICAL CHAPERONES” (AMICUS THERAPEUTICS, INC., priority 2007, published 2010).

Tests used:
[1] = molecular target: T1, iduronate-2-sulfatase (Homo sapiens, UniProt P22304); conditions: for pH optimum: Table 4, cells marked * (not optimum pH) left out; for activity as % of maximal activity: at pH 6.3; for Km / kcat. (turnover no.) / Relative catalytic efficiency: at the optimum pH of the substrate analog; for Relative catalytic efficiency: IdoA2S-anM = 1.0; for pH of maximal activity: text b65, highly sulfated tetrasaccharide substrates
T1 sequence (P22304 34-550): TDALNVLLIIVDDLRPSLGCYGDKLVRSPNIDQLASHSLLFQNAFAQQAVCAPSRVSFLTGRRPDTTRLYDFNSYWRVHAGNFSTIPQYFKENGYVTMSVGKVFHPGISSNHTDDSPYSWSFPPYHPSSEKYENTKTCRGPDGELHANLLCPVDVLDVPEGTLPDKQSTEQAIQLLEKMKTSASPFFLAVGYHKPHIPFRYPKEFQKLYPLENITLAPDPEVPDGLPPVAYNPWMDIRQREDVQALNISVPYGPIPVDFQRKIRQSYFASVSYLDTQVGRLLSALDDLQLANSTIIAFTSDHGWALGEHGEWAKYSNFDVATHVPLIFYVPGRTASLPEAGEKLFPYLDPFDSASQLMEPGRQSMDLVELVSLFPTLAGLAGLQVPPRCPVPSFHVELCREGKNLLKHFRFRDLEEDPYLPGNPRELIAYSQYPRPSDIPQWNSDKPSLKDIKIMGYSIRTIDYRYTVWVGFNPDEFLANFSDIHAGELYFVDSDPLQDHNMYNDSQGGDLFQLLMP

[2] = molecular target: T2, N-acetyl-glucosamine-6-sulfate sulfatase (6S) Form A (Homo sapiens, UniProt P15586); conditions: for kcat. (turnover number) / Relative catalytic efficiency* / Km: Form A; for Relative catalytic efficiency*: kcat./Km calculated relative to a value for GlcNAc6S = 1; for Km: read-out: Km; for pH optimum: Table 6
T2 sequence (P15586 37-552): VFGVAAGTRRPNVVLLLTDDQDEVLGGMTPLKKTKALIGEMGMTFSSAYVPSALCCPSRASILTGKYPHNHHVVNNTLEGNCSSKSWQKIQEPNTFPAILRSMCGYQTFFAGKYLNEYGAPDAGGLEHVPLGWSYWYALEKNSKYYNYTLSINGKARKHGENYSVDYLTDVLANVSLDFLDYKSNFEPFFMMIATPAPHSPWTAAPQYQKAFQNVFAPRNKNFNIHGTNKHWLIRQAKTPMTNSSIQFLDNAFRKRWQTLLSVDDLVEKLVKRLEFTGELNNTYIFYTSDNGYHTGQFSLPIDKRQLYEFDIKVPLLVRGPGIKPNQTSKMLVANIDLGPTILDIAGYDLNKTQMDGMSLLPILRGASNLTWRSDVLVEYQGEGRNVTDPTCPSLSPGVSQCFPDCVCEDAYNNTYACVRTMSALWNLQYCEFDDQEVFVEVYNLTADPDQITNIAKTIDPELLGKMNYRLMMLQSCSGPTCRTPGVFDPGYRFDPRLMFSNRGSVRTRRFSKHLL

## O-(α-L-iduronic acid 2-sulphate)-(1-4)-D-β-(α-2-sulphaminoglucosamine 6 sulphate)-(1-4)-L-O-(α-iduronic acid 2-sulphate)-(1-4)-D-O-2,5-anhydro[1-^3H]mannitol 6-sulphate [IdoA2S-GlcNS6S-IdoA2S-anM6S]
[1]
  pH range of activity: 5.0-6.5
  pH optimum: 5.7
  activity as % of maximal activity: ~90%
  Km: 1.4 µM
  kcat. (turnover no.): 2177 mol/min per mol of enzyme
  Relative catalytic efficiency: 186.7
  pH of maximal activity: 5.7

## [Cl-].[Cl-].[Mg+2] [magnesium chloride]
[1]
  effect of salt on activity of the enzyme against the substrates: no effect or increase the activity

## O=P(O)(O)O [sodium phosphate]
[1]
  effect of salt on activity of the enzyme against the substrates: inhibitory

## manganese chloride
[1]
  effect of salt on activity of the enzyme against the substrates: no effect or increase the activity

## N[C@H]1[C@@H](O[C@H]2[C@H](O)[C@@H](OS(=O)(=O)O)[C@H](O[C@H]3[C@H](O)[C@@H](CO)O[C@@H]3COS(=O)(=O)O)O[C@H]2C(=O)O)O[C@H](COS(=O)(=O)O)[C@@H](O)[C@@H]1O [GlcNH6S-IdoA2S-anM6S, O-α-glucosamine 6-sulphate)-(1-4)-L-O-(α-iduronic acid 2-sulphate)-(1-4)-D-β-2,5-anhydro-mannitol 6-sulphate]
[2]
  kcat. (turnover number): 0.11 mol/min per mol of enzyme
  Relative catalytic efficiency*: 14
  Km: 0.35 µM
  pH optimum: 4.3

## O=C(O)[C@@H]1O[C@@H](O[C@H]2[C@H](O)[C@@H](CO)O[C@@H]2CO)[C@H](OS(=O)(=O)O)[C@@H](O)[C@@H]1O [IdoA2S-anM, L-O-(α-iduronic acid 2-sulphate-(1-4)-D-β-2,5-anhydro-mannitol]
[1]
  pH optimum: 5.4
  Km: 19.2 µM
  kcat. (turnover no.): 161 mol/min per mol of enzyme
  Relative catalytic efficiency: 1.0

## L-O-(α-iduronic acid 2 sulphate)-(1-4)-D-β-(α-2-sulphaminoglucosamine)-(1-4)-O-(β-D-glucuronic or α-L-iduronic acid)-(1-4) D-O(α-N-acetylglucosamine-(1-3)-D-O-]-gulonic acid [IdoA2S-GlcNS-UA-GlcNAc-GlcOA]
[1]
  pH optimum: 5.4
  Km: 1.9 µM
  kcat. (turnover no.): 756 mol/min per mol of enzyme
  Relative catalytic efficiency: 47.5

## L-O-(α-iduronic acid 2 sulphate)-D-β-α-glucosamine 6-sulphate)-(1-4)-L-O-(α-iduronic acid 2-sulphate)-(1-4)-D-O-anhydro-mannitol 6-sulphate [IdoA2S-GlcNH6S-IdoA2S-anM6S]
[1]
  pH range of activity: 4.2-6.0
  pH optimum: 5.4
  activity as % of maximal activity: ~12%
  Km: 2.5 µM
  kcat. (turnover no.): 1925 mol/min per mol of enzyme
  Relative catalytic efficiency: 91.7
  pH of maximal activity: 5.1

## CC(=O)N[C@H]1[C@@H](O[C@H]2[C@H](O)[C@@H](OS(=O)(=O)O)[C@H](O[C@H]3[C@H](O)[C@@H](CO)O[C@@H]3COS(=O)(=O)O)O[C@H]2C(=O)O)O[C@H](COS(=O)(=O)O)[C@@H](O)[C@@H]1O [GlcNAc6S-IdoA2S-anM6S, O-(α-N-acetylglucosamine 6-sulphate)-(1-4)-L-O-(α-iduronic acid 2-sulphate)-(1-4)-D-O-2,5-anhydro-mannitol 6 sulphate]
[2]
  kcat. (turnover number): 7.08 mol/min per mol of enzyme
  Relative catalytic efficiency*: 402
  Km: 0.76 µM
  pH optimum: 4.3
